Values quoted from earlier work, collected in article PMC2361324, “Phase 1 trial of the antiangiogenic peptide ATN-161 (Ac-PHSCN-NH2), a beta integrin antagonist, in patients with solid tumours” (British Journal of Cancer, 2006).
Like-named read-outs stand apart in the source and are kept apart here.

Legend:
[1] = animal studies, preclinical; ref not given; cited from earlier work
[2] = system: DU145 prostate cancer cell line; settings: in vitro, human DU145 prostate cancer cell line; ref Livant et al, 2000b; cited from earlier work
Source text: (§1) In vitro, ATN-161 inhibited PHSRN-induced basement membrane invasion of human (DU145) and rat (MLL) prostate cancer cell lines ([Livant et al, 2000b]).

[3] = system: MLL prostate cancer cell line; settings: in vitro, rat MLL prostate cancer cell line; ref Livant et al, 2000b; cited from earlier work
Source text: as §1

MLL cells = settings: attempts to show induction; ref Livant et al, 2000b; cited from earlier work
[4] = except at extremely high, supratherapeutic doses, ref not given, cited from earlier work
Source text: These preclinical animal models included assessment of the effects of ATN-161 on tumour growth, metastasis, angiogenesis, tumour perfusion and circulating endothelial progenitor cells (CEPs) ([Donate et al, 2003]). […] We designed the phase 1 trial to evaluate a dose range in human beings (using well-established rules for interspecies dose conversi ...

For Ac-PHSCN-NH2 [ATN-161, Ac-PHSCN-NH2], the Immunogenicity [1] is listed as “not immunogenic”, the “PHSRN-induced basement membrane invasion” value [2] is listed as “inhibited” and the “PHSRN-induced basement membrane invasion” value [3] is listed as “inhibited”. For the same substance, the “Induction of apoptosis in MLL cells” value (MLL cells) was “unsuccessful”, the “Toxicity in preclinical toxicology studies” value ([4]; primates) was “no consistent evidence of ATN-161 toxicity” and the “Toxicity in preclinical toxicology studies” value ([4]; rats) was “no consistent evidence of ATN-161 toxicity”.
